Measurements: US20240016781A1, “TREATMENT OF KRAS MUTANT CANCERS” (MEI Pharma, Inc., priority 2020, published 2024)
Read-outs that look alike come from different tables or passages of the source.

Legend:
Test in all cases: 72-hour CellTiter-Glo 2.0 growth inhibition screen (single agent, 9x9 combination dose matrix)
Assay type in all cases: cell-based
[1] = test system: SW48 KRAS (G12D/+); conditions: SW48 KRAS (G12D/+), Colorectal, 72 h; for EC50: read-out: EC50
Protocol: (§1) Growth inhibition was determined using a 72-hour CellTiter-Glo®2.0 proliferation assay. Combination format was a 9×9 dose matrix. Six of the 20 cell lines received the original two combinations whilst the remaining 14 cell lines received two additional combinations resulting in four combinations in total. Results have been supplied as both Chalice Analyzer files (.mcc) and raw luminescence data.
(§2) Cell lines that have been preserved in liquid nitrogen are thawed and expanded in growth media (see Appendix I). Once cells have reached expected doubling times, screening begins. Cells are seeded in 25 μl of growth media in black 384-well tissue culture treated plates at 500 cells per well (as noted in Analyzer). Cells are equilibrated in assay plates via centrifugation and placed at 37° C. 5% CO2 for twenty-four hours before treatment. […] Compounds are transferred to assay plates using and Echo acoustic liquid handling system. […] of each compound was added at the appropriate concentration for all combination dose points. Therefore, final assay volume would be 25.05 μl. Assay plates are incubated with compound for 3 days and are then analyzed using CellTiter-Glo 2.0. All data points are collected via automated processes and are subject to quality control and analyzed.
(§3) If T≥V_0:100*(1−(T−V_0)/(V−V_0)) • where T is the signal measure for a test article, V is the untreated/vehicle-treated control measure, and Vo is the untreated/vehicle control measure at time zero (also colloquially referred as TO plates). This formula is derived from the Growth Inhibition calculation used in the National Cancer Institute's NCI-60 high throughput screen. For the purposes of this disclosure, all data analysis was performed in Growth Inhibition (except where noted).
(§4) Inhibition is also provided as a measure of cell viability. […] Inhibition of 100% represents no doubling of cell numbers during the treatment window. Both cytostatic and cytotoxic treatments can yield an Inhibition percentage of 100%. Inhibition percentage is calculated as the following: […]
(§5) The fractional inhibition for each component agent and combination point in the matrix is calculated relative to the median of all untreated/vehicle-treated control wells. The Synergy Score equation integrates the experimentally-observed activity volume at each point in the matrix in excess of a model surface numerically derived from the activity of the component agents using the Loewe model for additivity. Additional terms in the Synergy Score equation (above) are used to normalize for various dilution factors used for individual agents and to allow for comparison of synergy scores across an entire experiment. The inclusion of positive inhibition gating or an Idata multiplier removes noise near the zero-effect level, and biases results for synergistic interactions at that occur at high activity levels. Combinations with higher maximum Growth Inhibition (GI) effects or those which are synergistic at low concentrations will have higher Synergy Scores.
(§6) The CI is a rough estimate of how much drug was needed in combination relative to the single agent doses required to achieve the chosen effect level. CI values in the range of 0.5-0.7 are typical for in vitro measurements of current clinical combinations. The CI error (σCI) is calculated using standard error propagation through the CI calculation based on the isobologram errors. In the Chalice Analyzer, the Best CI is reported from the many CI values calculated for each Icut crossing combination. Among all the measured CI values, the one with the largest single-to-noise level (1−CI)/σCI is reported as the Best CI. Best CI Level is the effect level from which the CI is calculated.

[2] = test system: NCI-H358; conditions: NCl-H358, Lung, 72 h
Protocol: as §1, §2, §3, §4, §5, §6

[3] = test system: SW48; conditions: SW48, Colorectal, 72 h
Protocol: as §1, §2, §3, §4, §5, §6

[4] = test system: TOV-21G; conditions: TOV-21G, Ovary, 72 h
Protocol: as §1, §2, §3, §4, §5, §6

[5] = test system: HPAF-II; conditions: HPAF-II, Pancreas, 72 h
Protocol: as §1, §2, §3, §4, §5, §6

[6] = Additional Single Agent Responses (inhibition, % I)
[7] = Additional Single Agent Responses
[8] = growth inhibition (GI) curve, single agent
[9] = growth inhibition (GI), AUC, single agent
[10] = growth inhibition (GI), single agent

IC50 [1, 6]: 572 nM
EC50 [1, 6]: 463 nM
GI50 [1, 8]: 428 nM
EC50 [1, 8]: 541 nM
EC50 [2, 6]: 591 nM
IC50 [2, 6]: 628 nM
EC50 [2, 8]: 598 nM
GI50 [2, 8]: 585 nM
EC50 [3, 6]: 443 nM
IC50 [3, 6]: 526 nM
EC50 [3, 8]: 566 nM
GI50 [3, 8]: 422 nM
Structure (SMILES): CN1CC[C@@H](c2c(O)cc(O)c3c(=O)cc(-c4ccc(C(F)(F)F)cc4Cl)oc23)[C@@H]1CO [MEI-522(Voruciclib)]
Response Area [1, 6]: 2.81
Max Response (% I) [1, 7]: 84 % I
Response Area [1, 9]: 4.36
Max Response (% GI) [1, 10]: 139 % GI
Response Area [2, 6]: 2.50
Max Response (% I) [2, 7]: 85 % I
Response Area [2, 9]: 3.61
Max Response (% GI) [2, 10]: 137 % GI
Response Area [3, 6]: 2.91
Max Response (% I) [3, 7]: 87 % I
Response Area [3, 9]: 4.44
Max Response (% GI) [3, 10]: 135 % GI
EC50 [4, 6]: 1660 nM
IC50 [4, 6]: 1730 nM
Response Area [4, 6]: 2.63
Max Response (% I) [4, 7]: 95 % I
EC50 [4, 8]: 1980 nM
GI50 [4, 8]: 1570 nM
Response Area [4, 9]: 4.89
Max Response (% GI) [4, 10]: 181 % GI
EC50 [5, 6]: 1310 nM
IC50 [5, 6]: 1880 nM
Response Area [5, 6]: 2.09
Max Response (% I) [5, 7]: 72 % I
EC50 [5, 8]: 1330 nM
GI50 [5, 8]: 1340 nM
Response Area [5, 9]: 2.84
Max Response (% GI) [5, 10]: 97 % GI
